Test results reported in patent publication US20250295679A1, “Compositions and Dosage Forms for Treatment of HPV Infection and HPV-Induced Neoplasia” (priority 2022, published 2025).
Read-outs that look alike come from different tables or passages of the source.

Experiments:
[1] = Hygroscopicity by DVS at 25° C.; type: physicochemical
Protocol: Hygroscopicity was investigated by DVS at 25° C., using the following method: • Method: 40-0-95-0-40% RH, dm/dt=0.002

[2] = Solubility in buffers, water and simulated vaginal fluid at 37° C.
Protocol: About 4 mg of Compound I Pattern 1 was added into 2 mL of buffer solution.
(§1) Solubility was tested in five media, pH 3.0 citrate buffer, pH 4.5 acetate buffer, pH 6.8 phosphate buffer, water, simulated vaginal fluid (pH 4.2) at 37° C. for 0.5 h and 2 h.
The salt amount used is equivalent to 10 mg anhydrous free base. […] The obtained clear solutions were analyzed by pH meter for pH, and solubility was determined by observation.
as §1

[3] = Bulk (accelerated) stability, one week, HPLC and XRPD; details: for HPLC purity, Initial: initial chemical purity before storage
Protocol: Bulk stability: Accelerated stability experiments were conducted at 25° C./92% RH and 40° C./75% RH in an open container, 60° C. in a tight container for one week.
Samples were characterized by XRPD and HPLC and inspected for color change.
Accelerated stability experiments were conducted at 25° C./92% RH in an open container, at 40° C./75% RH in an open container, and at 60° C. in a tight container for one week.

[4] = 25° C., 92% RH, open container, one week

## CCOC(=O)C(C)NP(=O)(COCCn1cnc2c(OC)nc(N)nc21)OCc1ccccc1.CCOC(=O)C(C)NP(=O)(COCCn1cnc2c(OC)nc(N)nc21)OCc1ccccc1.O=C(O)C=CC(=O)O (mixture of isomers) [Compound I hemifumarate]
[1]; 0% RH, DVS 25° C.
  Desorption (%) Cycle 1: 0.13%
  Desorption (%) Cycle 2: 0.00%
  Sorption (%) Cycle 1: 0.13%
  Sorption (%) Cycle 2: 0.00%
[1]; 10% RH, DVS 25° C.
  Desorption (%) Cycle 1: 0.36%
  Desorption (%) Cycle 2: 0.23%
  Sorption (%) Cycle 1: 0.34%
  Sorption (%) Cycle 2: 0.20%
[1]; 20% RH, DVS 25° C.
  Desorption (%) Cycle 1: 0.56%
  Desorption (%) Cycle 2: 0.44%
  Sorption (%) Cycle 1: 0.53%
  Sorption (%) Cycle 2: 0.40%
[1]; 30% RH, DVS 25° C.
  Desorption (%) Cycle 1: 0.79%
  Desorption (%) Cycle 2: 0.68%
  Sorption (%) Cycle 1: 0.73%
  Sorption (%) Cycle 2: 0.61%
[1]; 40% RH, DVS 25° C.
  Desorption (%) Cycle 1: 1.04%
  Desorption (%) Cycle 2: 0.94%
  Sorption (%) Cycle 1: 0.96%
  Sorption (%) Cycle 2: 0.87%
[1]; 50% RH, DVS 25° C.
  Desorption (%) Cycle 2: 1.26%
  Sorption (%) Cycle 1: 1.22%
[1]; 60% RH, DVS 25° C.
  Desorption (%) Cycle 2: 1.68%
  Sorption (%) Cycle 1: 1.57%
[1]; 70% RH, DVS 25° C.
  Desorption (%) Cycle 2: 2.25%
  Sorption (%) Cycle 1: 2.04%
[1]; 80% RH, DVS 25° C.
  Desorption (%) Cycle 2: 3.14%
  Sorption (%) Cycle 1: 2.80%
[1]; 90% RH, DVS 25° C.
  Desorption (%) Cycle 2: 4.84%
  Sorption (%) Cycle 1: 4.54%
[1]; 95% RH, DVS 25° C.
  Desorption (%) Cycle 2: 6.87%
  Sorption (%) Cycle 1: 6.87%
[1]; after humidity cycle 40-0-95-0-40% RH, 25° C.
  XRPD after DVS test: No form change,
[1]; up to / in 95% RH, DVS 25° C.
  Water uptake: ~6.9%
[2]
  Solubility 0.5 hrs: >2 mg/mL
  Solubility 2 hrs: >2 mg/mL
[2]; pH 3
  Solubility 0.5 hrs: >2 mg/mL
  Solubility 2 hrs: >2 mg/mL
[2]; pH 4.2
  Solubility 0.5 hrs: >2 mg/mL
  Solubility 2 hrs: >2 mg/mL
[2]; pH 4.5
  Solubility 0.5 hrs: >2 mg/mL
  Solubility 2 hrs: >2 mg/mL
[2]; pH 6.8
  Solubility 0.5 hrs: >2 mg/mL
  Solubility 2 hrs: >2 mg/mL
[2]; solution in simulated vaginal fluid (pH adjusted with 0.2N NaOH), 37° C.
  pH at 2 hrs: (5.30)
[3]; [4]
  HPLC purity after storage: 97.0%
  XRPD after storage: No change
[3]; 40° C., 75% RH, open container, one week
  HPLC purity after storage: 90.9%
[3]; 60° C., tight container, one week
  HPLC purity after storage: 82.3%
[3]; listed as Compound I Hemifumarate Pattern 1
  HPLC purity, Initial: 97.8%
[3]; listed as Compound I hemifumarate Pattern 1
  HPLC purity, Initial: 97.8%
